The experiment deals with T1, USP45 (Homo sapiens, UniProt Q70EL2).
T1 construct: USP45-His purified from E. coli BL21, biotinylated
T1 sequence (Q70EL2 1-814): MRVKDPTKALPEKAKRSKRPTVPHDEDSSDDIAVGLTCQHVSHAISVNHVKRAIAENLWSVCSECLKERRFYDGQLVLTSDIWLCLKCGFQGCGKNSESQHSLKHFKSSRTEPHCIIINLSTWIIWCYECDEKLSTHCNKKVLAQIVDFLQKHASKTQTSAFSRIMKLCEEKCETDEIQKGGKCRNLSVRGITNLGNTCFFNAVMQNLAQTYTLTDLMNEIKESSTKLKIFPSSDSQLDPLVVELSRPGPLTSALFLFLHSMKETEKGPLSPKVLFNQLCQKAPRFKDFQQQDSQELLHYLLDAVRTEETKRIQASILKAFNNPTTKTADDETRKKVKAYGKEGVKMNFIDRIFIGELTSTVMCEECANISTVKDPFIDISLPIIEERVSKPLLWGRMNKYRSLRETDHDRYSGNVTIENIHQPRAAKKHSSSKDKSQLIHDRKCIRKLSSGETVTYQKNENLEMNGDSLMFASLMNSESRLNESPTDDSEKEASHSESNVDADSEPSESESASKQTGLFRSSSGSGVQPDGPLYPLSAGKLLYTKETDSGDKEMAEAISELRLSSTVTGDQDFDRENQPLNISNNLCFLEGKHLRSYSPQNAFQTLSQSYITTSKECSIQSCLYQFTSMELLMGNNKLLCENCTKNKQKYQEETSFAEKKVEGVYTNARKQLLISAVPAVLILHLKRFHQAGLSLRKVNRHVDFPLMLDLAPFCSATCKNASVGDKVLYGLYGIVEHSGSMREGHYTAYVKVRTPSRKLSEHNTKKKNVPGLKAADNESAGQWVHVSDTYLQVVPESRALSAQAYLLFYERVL
Nature of the experiment: BLI (OCTET K2) with purified biotinylated USP45. The class given is binding.

Molecules are shown by their SMILES.

Molecule `COc1c(O)cc2oc3cc(O)c(CC=C(C)C)c(O)c3c(=O)c2c1CC=C(C)C` [AMG, α-mangostin] had an equilibrium dissociation constant (Kd) of 19.3 µM.

For orientation: Kd means the concentration at which binding is half-saturated. A high value points to a looser complex.

Values taken from PMC9913288, “Suppression of Cancer Cell Stemness and Drug Resistance via MYC Destabilization by Deubiquitinase USP45 Inhibition with a Natural Small Molecule” (Cancers, 2023).
